Test results from patent US11708562B2, “Differentiation of human embryonic stem cells” (Janssen Biotech, Inc., priority 2006, dated 2023).

Test system: human embryonic stem cell line H9
Experiment: Formation of pancreatic endocrine cells expressing Nkx2.2 (PCR)
Type: cell-based
Conditions: activin A for the first three days of culture
Procedure: Cells were continuously cultured for another 3 to 5 days in basal medium with retinoic acid at 1 μM, alone or with bFGF. RNA samples were harvested from cells at various time points along this process to help evaluate the directed differentiation of the cells. Furthermore, culture medium and factors were regularly removed and replenished throughout the differentiation protocol.

Activin A: a member of the TGFβ superfamily; growth factor (R&D Systems) used to differentiate human embryonic stem cells
Pdx1 expression compared to samples containing no activin A: maintained Pdx1 expression
